Test results taken from the supplement of paper PMC11208160.

Assay: recombinant UMI read abundance after kanamycin selection (control-corrected) (log10(CPM+1)); higher = more efficient recombination; extreme values may be limits of the assay; sequences stand for … in AGTGCAGAGAAAATCGGCCAGTTTTCTCTGCCTGCAGTCCGCATGCCGTGGGACCCCTTGGGTTCTAACCTGTTGCCTAGATTTATGCAGCGGACTGCCTTTCTCCCAAAGTGATAAACCGG…AGGTTGGTTTCACT; site = the 11-nt donor
Procedure, shortened: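 Reported values are log10(CPM+1) from a pooled Escherichia coli screen of donor and donor-binding-loop pairs for the IS621 bridge recombinase. Selection used IPTG (0.07 mM) plus kanamycin, against unselected plating, each in two replicates. Recombinant UMIs were amplified across the donor–target junction, sequenced, converted to CPM, averaged over replicates and scaled by control-derived factors.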
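Further: IS621 bridge recombinase in Escherichia coli cells against a fixed T5 target plasmid.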

Row | Sequence | recombinant UMI read abundance (log10)
1 | CGGGAGTCATGGACCGGTTTTCCCGGTAATCCGTATTTGAC (site CGGGAGTCTGC) | 1.66
2 | CGGGAGTCATGGACCGGTTTTCCCGGTAATCCGTATTTGAC (site CGGGAGTCTGG) | 1.25
3 | CGGGAGTCATGGACCGGTTTTCCCGGTAATCCGTATTTGAC (site CGGGAGTCTGT) | 0.147
4 | CGGGAGTCATGGACCGGTTTTCCCGGTAATCCGTATTTGGT (site CGGGAGTCTAC) | 2.11
5 | CGGGATCCATGGACCGGTTTTCCCGGTAATCCGTATTTGTA (site CGGAATCCTAA) | 0
6 | CGGGATCCATGGACCGGTTTTCCCGGTAATCCGTATTTGTA (site CGGGATCCTTA) | 1.69
7 | CGGGATTCATGGACCGGTTTTCCCGGTAATCCGTATTTGCC (site CGGGAATCTGG) | 0.816
8 | CGGGATTCATGGACCGGTTTTCCCGGTAATCCGTATTTGCC (site CGGGACTCTGG) | 2.97
9 | CGGGATTCATGGACCGGTTTTCCCGGTAATCCGTATTTGCC (site CGGGAGTCTGG) | 1.18
10 | CGGGATTCATGGACCGGTTTTCCCGGTAATCCGTATTTGCC (site CGGGATTCTGG) | 2.58
11 | CGGGATTCATGGACCGGTTTTCCCGGTAATCCGTATTTGTT (site CGGAATCCTAA) | 0
12 | CGGGATTCATGGACCGGTTTTCCCGGTAATCCGTATTTGTT (site CGGGATTCTAA) | 2.91
13 | CGGGGTACATGGACCGGTTTTCCCGGTAATCCGTATTTGTA (site CGGGGTACTTA) | 2.49
14 | CGGGGTGCATGGACCGGTTTTCCCGGTAATCCGTATTTGGT (site CGGGGTGCTAC) | 1.25
15 | CGGGTCACATGGACCGGTTTTCCCGGTAATCCGTATTTGTC (site CGGGTCACTGA) | 3.01
16 | CGGGTTCCATGGACCGGTTTTCCCGGTAATCCGTATTTGAC (site CGGGTTCCTGT) | 0.77
17 | CGGTAGTCATGGACCGGTTTTCCCGGTAATCCGTATTTGCC (site CGGAAGTCTGG) | 0.759
18 | CGGTAGTCATGGACCGGTTTTCCCGGTAATCCGTATTTGCC (site CGGCAGTCTGG) | 1.47
19 | CGGTAGTCATGGACCGGTTTTCCCGGTAATCCGTATTTGCC (site CGGGAGTCTGG) | 0
20 | CGGTAGTCATGGACCGGTTTTCCCGGTAATCCGTATTTGCC (site CGGTAGTCTGG) | 2.78
21 | CGGTATACATGGACCGGTTTTCCCGGTAATCCGTATTTGTT (site CGGAATCCTAA) | 0
22 | CGGTATACATGGACCGGTTTTCCCGGTAATCCGTATTTGTT (site CGGTATACTAA) | 1.62
23 | CGGTATCCATGGACCGGTTTTCCCGGTAATCCGTATTTGAT (site CGGAATCCTAA) | 0.00344
24 | CGGTATCCATGGACCGGTTTTCCCGGTAATCCGTATTTGAT (site CGGTATCCTAT) | 0.734
25 | CGGTATCCATGGACCGGTTTTCCCGGTAATCCGTATTTGCC (site CGGTATCCTGG) | 0

Row | Sequence | recombinant UMI read abundance (log10)
26 | CGGTCATCATGGACCGGTTTTCCCGGTAATCCGTATTTGTT (site CGATCATCTAG) | 0
27 | CGGTCATCATGGACCGGTTTTCCCGGTAATCCGTATTTGTT (site CGGTCATCTAA) | 0.27
28 | CGGTCGACATGGACCGGTTTTCCCGGTAATCCGTATTTGGA (site CGGTCGACTTC) | 0.112
29 | CGGTGCGCATGGACCGGTTTTCCCGGTAATCCGTATTTGCC (site CGGTGCGCTGG) | 1.48
30 | CGGTGTCCATGGACCGGTTTTCCCGGTAATCCGTATTTGTT (site CGGAATCCTAA) | 0.0121
31 | CGGTGTCCATGGACCGGTTTTCCCGGTAATCCGTATTTGTT (site CGGTGTCCTAA) | 0.0166
32 | CGGTTAGCATGGACCGGTTTTCCCGGTAATCCGTATTTGTG (site CAGTTAGCTCA) | 0.694
33 | CGGTTAGCATGGACCGGTTTTCCCGGTAATCCGTATTTGTG (site CCGTTAGCTCA) | 0
34 | CGGTTAGCATGGACCGGTTTTCCCGGTAATCCGTATTTGTG (site CGGTTAGCTCA) | 1.7
35 | CGGTTAGCATGGACCGGTTTTCCCGGTAATCCGTATTTGTG (site CTGTTAGCTCA) | 0.256
36 | CGTACAACATGGACCGGTTTTCCCGGTAATCCGTATTTGGT (site CGTACAACTAC) | 1.09
37 | CGTAGCGCATGGACCGGTTTTCCCGGTAATCCGTATTTGTT (site CGTAGCGCTAA) | 1.05
38 | CGTCAGACATGGACCGGTTTTCCCGGTAATCCGTATTTGAG (site CGTAAGACTCT) | 0.182
39 | CGTCAGACATGGACCGGTTTTCCCGGTAATCCGTATTTGAG (site CGTCAGACTCT) | 1.16
40 | CGTCAGACATGGACCGGTTTTCCCGGTAATCCGTATTTGAG (site CGTGAGACTCT) | 0.016
41 | CGTCAGACATGGACCGGTTTTCCCGGTAATCCGTATTTGAG (site CGTTAGACTCT) | 0.0174
42 | CGTCGACCATGGACCGGTTTTCCCGGTAATCCGTATTTGAT (site CGTCGACCTAT) | 0.0862
43 | CGTCGTACATGGACCGGTTTTCCCGGTAATCCGTATTTGCT (site CGACGTACTAG) | 0.689
44 | CGTCGTACATGGACCGGTTTTCCCGGTAATCCGTATTTGCT (site CGCCGTACTAG) | 1.22
45 | CGTCGTACATGGACCGGTTTTCCCGGTAATCCGTATTTGCT (site CGGCGTACTAG) | 0.794
46 | CGTCGTACATGGACCGGTTTTCCCGGTAATCCGTATTTGCT (site CGTCGTACTAG) | 1.76
47 | CGTCTCCCATGGACCGGTTTTCCCGGTAATCCGTATTTGAG (site CGTCTCCCTCT) | 0.0129
48 | CGTGAACCATGGACCGGTTTTCCCGGTAATCCGTATTTGAT (site CGAGAACCTAT) | 0.0201
49 | CGTGAACCATGGACCGGTTTTCCCGGTAATCCGTATTTGAT (site CGCGAACCTAT) | 0
50 | CGTGAACCATGGACCGGTTTTCCCGGTAATCCGTATTTGAT (site CGGGAACCTAT) | 0

Row | Sequence | recombinant UMI read abundance (log10)
51 | CGTGAACCATGGACCGGTTTTCCCGGTAATCCGTATTTGAT (site CGTGAACCTAT) | 0.0133
52 | CGTGACTCATGGACCGGTTTTCCCGGTAATCCGTATTTGCG (site CGTGACTCTCG) | 2.74
53 | CGTGACTCATGGACCGGTTTTCCCGGTAATCCGTATTTGTA (site CGTGACTCTTA) | 3.02
54 | CGTGAGTCATGGACCGGTTTTCCCGGTAATCCGTATTTGCC (site CGAGAGTCTGG) | 1.79
55 | CGTGAGTCATGGACCGGTTTTCCCGGTAATCCGTATTTGCC (site CGCGAGTCTGG) | 0
56 | CGTGAGTCATGGACCGGTTTTCCCGGTAATCCGTATTTGCC (site CGGGAGTCTGG) | 0.694
57 | CGTGAGTCATGGACCGGTTTTCCCGGTAATCCGTATTTGCC (site CGTGAGTCTGG) | 1.97
58 | CGTGAGTCATGGACCGGTTTTCCCGGTAATCCGTATTTGCG (site CGTGAGTCTCG) | 2.58
59 | CGTGCGGCATGGACCGGTTTTCCCGGTAATCCGTATTTGGA (site CGTGCGGCTTC) | 0.167
60 | CGTGCGTCATGGACCGGTTTTCCCGGTAATCCGTATTTGTA (site CGTGCGTCTTA) | 2.34
61 | CGTGGAACATGGACCGGTTTTCCCGGTAATCCGTATTTGGT (site CGTGGAACTAA) | 0.427
62 | CGTGGAACATGGACCGGTTTTCCCGGTAATCCGTATTTGGT (site CGTGGAACTAC) | 1.33
63 | CGTGGAACATGGACCGGTTTTCCCGGTAATCCGTATTTGGT (site CGTGGAACTAG) | 0
64 | CGTGGAACATGGACCGGTTTTCCCGGTAATCCGTATTTGGT (site CGTGGAACTAT) | 1.26
65 | CGTGGCACATGGACCGGTTTTCCCGGTAATCCGTATTTGTT (site CGTGGAACTAA) | 0.00865
66 | CGTGGCACATGGACCGGTTTTCCCGGTAATCCGTATTTGTT (site CGTGGCACTAA) | 0.862
67 | CGTGGCACATGGACCGGTTTTCCCGGTAATCCGTATTTGTT (site CGTGGGACTAA) | 0.00775
68 | CGTGGCACATGGACCGGTTTTCCCGGTAATCCGTATTTGTT (site CGTGGTACTAA) | 0.0209
69 | CGTGTAACATGGACCGGTTTTCCCGGTAATCCGTATTTGTT (site CGTGAAACTAA) | 0.00395
70 | CGTGTAACATGGACCGGTTTTCCCGGTAATCCGTATTTGTT (site CGTGCAACTAA) | 0.015
71 | CGTGTAACATGGACCGGTTTTCCCGGTAATCCGTATTTGTT (site CGTGGAACTAA) | 0.0109
72 | CGTGTAACATGGACCGGTTTTCCCGGTAATCCGTATTTGTT (site CGTGTAACTAA) | 0.811
73 | CGTTAAGCATGGACCGGTTTTCCCGGTAATCCGTATTTGGC (site CGTTAAGCTGC) | 1.73
74 | CGTTACCCATGGACCGGTTTTCCCGGTAATCCGTATTTGCG (site CGTTACCCTCG) | 0.477
75 | CGTTAGACATGGACCGGTTTTCCCGGTAATCCGTATTTGAT (site CGTTAGACTAT) | 1.58
